The values below come from paper PMC6517818, “The yeast mitochondrial pyruvate carrier is a hetero‐dimer in its functional state” (The EMBO Journal, 2019).

Like-named read-outs stand apart in the source and are kept apart here.

To fix the notation:
B1: Mpc3 after nickel-affinity purification and Factor Xa cleavage of the histidine tag (natural protein, S. cerevisiae, UniProt P53311 1-146, looked up)
chain: MSASAFNFAFRRFWNSETGPKTVHFWAPTLKWGLVFAGLNDIKRPVEKVSGAQNLSLLATALIWTRWSFVIKPKNYLLASVNFFLGCTAGYHLTRIANFRIRNGDSFKQVIHYIIKGETPAAVAAKQTASTSMNKGVIGTNPPITH
notes: Mpc3, S. cerevisiae, UniProt P53311; codon-optimised synthetic gene; theoretical mass 17.1 kDa; Same construct as m2 after tag removal; The residues IEGR of the Factor Xa site probably remain at the C-terminus after cleavage (surmised); source: S. cerevisiae mitochondria (with Mpc1: W303-1B or SHY15; alone: SHY15), purified (nickel Sepharose, on-column Factor Xa cleavage) in LMNG and tetraoleoyl …

For series [1], the target named is T1, Mpc1 (Mpc1/Mpc3 hetero-dimer, mitochondrial pyruvate carrier) (Saccharomyces cerevisiae, UniProt P53157+P53311).
T1 construct: Mpc1/Mpc3 hetero-complex, untagged Mpc1 co-expressed with C-terminally tagged Mpc3, reconstituted in liposomes; with Mpc3 (P53311)
T1 sequence (P53157 1-130): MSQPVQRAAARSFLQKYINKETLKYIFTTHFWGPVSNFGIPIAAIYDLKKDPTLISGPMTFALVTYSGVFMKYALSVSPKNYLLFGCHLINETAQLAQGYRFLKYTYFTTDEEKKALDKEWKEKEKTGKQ
T1 sequence (P53311 21-146): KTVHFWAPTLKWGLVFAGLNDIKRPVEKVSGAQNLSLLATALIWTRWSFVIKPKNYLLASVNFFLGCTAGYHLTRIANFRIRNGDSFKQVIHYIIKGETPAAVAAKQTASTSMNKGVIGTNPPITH
Nature of the series: […]-pyruvate homo-exchange inhibition in proteoliposomes. Format: biochemical.

Series [2] concerns the target T2, Mpc2 (Mpc1/Mpc2 hetero-complex, MPCFERM) (Saccharomyces cerevisiae, UniProt P38857+P53157).
T2 construct: Mpc1/Mpc2 hetero-complex with C-terminally tagged Mpc2, reconstituted in liposomes; with Mpc1 (P53157)
T2 sequence (P38857 1-129): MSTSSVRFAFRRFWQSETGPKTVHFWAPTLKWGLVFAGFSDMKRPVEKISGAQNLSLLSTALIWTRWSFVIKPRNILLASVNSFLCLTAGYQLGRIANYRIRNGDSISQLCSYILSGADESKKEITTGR
T2 sequence (P53157 1-130): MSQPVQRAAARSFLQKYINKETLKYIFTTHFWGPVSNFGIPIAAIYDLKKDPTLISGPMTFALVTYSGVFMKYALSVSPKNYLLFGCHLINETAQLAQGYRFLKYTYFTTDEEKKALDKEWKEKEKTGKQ
Kind of series: time course of pyruvate homo-exchange in proteoliposomes at ΔpH […]. The series is classed as biochemical.

Series [3] concerns the molecule itself. Nature of the series: SEC-MALS; SEC-MALLS, Superdex 200 10/300 GL; 20 mM Tris-HCl pH 7.4, 150 mM NaCl, 0.005% LMNG, 0.005 mg/ml TOCL; nickel-affinity-purified Mpc1/Mpc3 complex or Mpc3 alone injected; protein-conjugate method. A general note: Size exclusion chromatography separates by hydrodynamic size, large species first.
Substrate in the series “purified protein”: CC(=O)C(=O)O
Nature of the series: purified protein. Format: biochemical, Saccharomyces cerevisiae.

In series [4] the target is B1. Kind of series: SEC-MALS; SEC-MALLS, Superdex 200 10/300 GL; 20 mM Tris-HCl pH 7.4, 150 mM NaCl, 0.005% LMNG, 0.005 mg/ml TOCL; nickel-affinity-purified Mpc1/Mpc3 complex or Mpc3 alone injected; protein-conjugate method. To be noted: both partners purified.
Series [5] addresses T3, Mpc3 with a C-terminal Factor Xa cleavage site and octa-histidine tag (S. cerevisiae, UniProt P53311 1-146).
T3 construct: Mpc3, S. cerevisiae, UniProt P53311; codon-optimised synthetic gene; This is the tagged form as captured on the nickel resin; The complex was then released by on-column Factor Xa cleavage; also called Mpc3his; histidine-tagged Mpc3; source: S. cerevisiae mitochondria (SHY15 or W303-1B), co-expressed from pBEVY-GU with untagged Mpc1; LMNG-solubilised mitochondria, captured on nickel …
T3 sequence (looked up): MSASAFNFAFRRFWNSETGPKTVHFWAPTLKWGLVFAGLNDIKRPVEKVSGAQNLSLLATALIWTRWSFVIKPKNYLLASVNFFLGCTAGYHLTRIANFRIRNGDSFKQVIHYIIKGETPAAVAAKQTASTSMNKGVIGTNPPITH
Kind of series: pull-down; nickel-affinity co-purification: untagged Mpc1 co-expressed with His8-tagged partner in yeast mitochondria; solubilised in 1% LMNG, 20 mM Tris-HCl pH 7.4, 150 mM NaCl, 4 °C; bound to nickel Sepharose, washed with 40 mM imidazole, 0.1% LMNG, 0.1 mg/ml TOCL; released by on-column Factor Xa cleavage; SDS-PAGE with Coomassie stain and peptide mass fingerprinting; Mpc1/Mpc3 also purified in Triton X-100, DMNG …. To be noted: partners not purified.

In the case of `O=C(O)c1nn(Cc2ccc(Cl)cc2Cl)c2ccccc12` [lonidamine], the IC50 (commonly the concentration needed to halve the response being measured) in series [1] worked out at 118 ± 24 µM.
Turning to `N#C/C(=C\c1cn(-c2ccccc2)c2ccccc12)C(=O)O` [UK5099], the IC50 in series [1] (read-out: IC50) was 9 ± 7 µM.
Take `CN(Cc1ccccc1)c1ccc2cc(C(=O)O)c(=O)oc2c1` [7ACC2]: the IC50 in series [1] (read-out: IC50) stood at 27 ± 13 µM.
On to `CC(=O)C(=O)O` [pyruvate], for which, in series [2], the “time course of pyruvate homo-exchange in proteoliposomes at ΔpH 1.6” value was “the Mpc1/Mpc2 hetero‐complex was also active for ΔpH‐dependent pyruvate transport (Fig EV4D)”.
In the case of B1, the stoichiometry N (usually a count of units in the complex or per binding partner) in series [3] turned out to be 2.

B2: Mpc1 (Mpc1/Mpc3 hetero-dimer, mitochondrial pyruvate carrier) (Saccharomyces cerevisiae S288C) (protein)
chain 1: MSQPVQRAAARSFLQKYINKETLKYIFTTHFWGPVSNFGIPIAAIYDLKKDPTLISGPMTFALVTYSGVFMKYALSVSPKNYLLFGCHLINETAQLAQGYRFLKYTYFTTDEEKKALDKEWKEKEKTGKQ
chain 2: KTVHFWAPTLKWGLVFAGLNDIKRPVEKVSGAQNLSLLATALIWTRWSFVIKPKNYLLASVNFFLGCTAGYHLTRIANFRIRNGDSFKQVIHYIIKGETPAAVAAKQTASTSMNKGVIGTNPPITH
notes: Mpc1/Mpc3 hetero-complex, untagged Mpc1 co-expressed with C-terminally tagged Mpc3, reconstituted in liposomes; with Mpc3 (P53311)
With B2, the Km (in general, the concentration of substrate that gives half-maximal velocity) in “purified protein” stood at 342 ± 58 µM.

B3: Mpc1 (untagged), mitochondrial pyruvate carrier protein 1 from Saccharomyces cerevisiae (natural protein, S. cerevisiae, UniProt P53157 1-130, looked up)
chain: MSQPVQRAAARSFLQKYINKETLKYIFTTHFWGPVSNFGIPIAAIYDLKKDPTLISGPMTFALVTYSGVFMKYALSVSPKNYLLFGCHLINETAQLAQGYRFLKYTYFTTDEEKKALDKEWKEKEKTGKQ
notes: Mpc1, S. cerevisiae, UniProt P53157; codon-optimised synthetic gene; theoretical mass 15 kDa; also called unmodified Mpc1; source: S. cerevisiae mitochondria (SHY15 or W303-1B), co-expressed from pBEVY-GU with histidine-tagged Mpc3 or Mpc2; co-purified on nickel Sepharose in LMNG and tetraoleoyl cardiolipin
For B3, the “stoichiometry N” value in series [4] and in series [5] was 1 Mpc1:Mpc3 throughout.
